SMILES strings stand for the structures.

The record followed here is ChEMBL document CHEMBL6096664, “Discovery of novel KSP-targeting PROTACs with potent antitumor effects in vitro and in vivo” (Eur J Med Chem, 2025).

The target of experiment [1] is T1, Kinesin-like protein KIF11 (Homo sapiens, UniProt P52732).
T1 sequence (P52732 whole entry): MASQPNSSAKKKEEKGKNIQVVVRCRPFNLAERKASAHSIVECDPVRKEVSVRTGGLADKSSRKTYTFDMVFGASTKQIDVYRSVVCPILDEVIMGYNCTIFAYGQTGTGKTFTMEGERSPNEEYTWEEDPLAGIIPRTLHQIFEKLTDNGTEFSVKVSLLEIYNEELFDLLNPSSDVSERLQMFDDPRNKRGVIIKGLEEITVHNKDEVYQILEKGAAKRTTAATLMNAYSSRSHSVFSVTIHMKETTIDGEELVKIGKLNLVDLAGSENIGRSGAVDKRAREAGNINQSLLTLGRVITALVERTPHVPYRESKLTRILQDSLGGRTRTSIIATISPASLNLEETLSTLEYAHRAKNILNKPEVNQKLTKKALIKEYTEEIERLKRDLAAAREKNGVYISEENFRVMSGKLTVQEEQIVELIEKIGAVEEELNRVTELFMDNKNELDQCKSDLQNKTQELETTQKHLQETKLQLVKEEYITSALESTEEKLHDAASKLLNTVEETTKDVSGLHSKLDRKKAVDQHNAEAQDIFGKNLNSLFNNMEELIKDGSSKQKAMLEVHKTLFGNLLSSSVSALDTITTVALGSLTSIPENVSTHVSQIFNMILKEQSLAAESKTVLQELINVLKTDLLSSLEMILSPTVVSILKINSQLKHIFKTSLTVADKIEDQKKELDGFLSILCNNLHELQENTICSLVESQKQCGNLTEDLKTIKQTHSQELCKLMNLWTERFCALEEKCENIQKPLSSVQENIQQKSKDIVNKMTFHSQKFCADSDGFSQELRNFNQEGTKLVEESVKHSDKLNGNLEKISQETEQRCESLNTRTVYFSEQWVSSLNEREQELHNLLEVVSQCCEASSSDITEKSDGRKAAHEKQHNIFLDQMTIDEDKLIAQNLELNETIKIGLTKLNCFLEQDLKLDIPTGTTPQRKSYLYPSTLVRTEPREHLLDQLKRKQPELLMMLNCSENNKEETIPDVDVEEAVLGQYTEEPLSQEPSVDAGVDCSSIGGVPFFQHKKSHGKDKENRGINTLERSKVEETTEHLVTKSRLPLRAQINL
Briefly: Inhibition of KSP (unknown origin) ATPase activity preincubated for 30 mins followed by ATP addition and measured after 15 mins by Kinase-Glo Plus reagent based luminescence analysis. A general note: Kinase-Glo measures the ATP left after a reaction by luminescence.

The subject of the next experiment is A549. As to the kind of experiment: Antiproliferative activity against human A549 cells assessed as inhibition of cell proliferation measured after 72 hrs by CCK8 assay. The conditions noted are these: A549, 72 h. Type of experiment: functional, cell-based. (In general: Tetrazolium assays rely on reduction of a dye to a coloured formazan, in cell work by metabolically active cells.)

The subject of experiment [2] is HCT-116. As to the kind of experiment: Antiproliferative activity against human HCT-116 cells assessed as inhibition of cell proliferation measured after 72 hrs by CCK8 assay. Format: functional, cell-based. Conditions: HCT-116, 72 h; call rule not given here.
Experiment [3] deals with HCT-116. As to the kind of experiment: Induction of cell cycle arrest in human HCT-116 cells assessed as accumulation of cells at S phase at 10 nM incubated for 24 hrs by RNase A/propidium iodide staining based flow cytometric analysis (reference value: 2.84 %). Type of experiment: functional. Background: Flow cytometry measures light scatter and fluorescence of single cells or particles in a stream.

For experiment [4], the target named is T2, Protein cereblon/Kinesin-like protein KIF11 (Homo sapiens, UniProt P52732+Q96SW2). Briefly: PROTAC activity at CRBN/KSP in human HCT-116 cells assessed as induction of KSP degradation incubated for 48 hrs by Western blot analysis. Type of experiment: cell-based.
The test system of experiment [5] is HCT-116. Briefly: Induction of cell cycle arrest in human HCT-116 cells assessed as accumulation of cells at G2/M phase at 100 nM incubated for 24 hrs by RNase A/propidium iodide staining based flow cytometric analysis (reference value: 4.05 %). Format: functional.
For experiment [6], the target named is T2, Protein cereblon/Kinesin-like protein KIF11. Briefly: PROTAC activity at CRBN/KSP in human HCT-116 cells assessed as induction of KSP degradation at 500 nM incubated for 48 hrs by Western blot analysis relative to control. Type of experiment: cell-based.
Target sequence in this assay (Q96SW2 whole entry, looked up, one chain of several): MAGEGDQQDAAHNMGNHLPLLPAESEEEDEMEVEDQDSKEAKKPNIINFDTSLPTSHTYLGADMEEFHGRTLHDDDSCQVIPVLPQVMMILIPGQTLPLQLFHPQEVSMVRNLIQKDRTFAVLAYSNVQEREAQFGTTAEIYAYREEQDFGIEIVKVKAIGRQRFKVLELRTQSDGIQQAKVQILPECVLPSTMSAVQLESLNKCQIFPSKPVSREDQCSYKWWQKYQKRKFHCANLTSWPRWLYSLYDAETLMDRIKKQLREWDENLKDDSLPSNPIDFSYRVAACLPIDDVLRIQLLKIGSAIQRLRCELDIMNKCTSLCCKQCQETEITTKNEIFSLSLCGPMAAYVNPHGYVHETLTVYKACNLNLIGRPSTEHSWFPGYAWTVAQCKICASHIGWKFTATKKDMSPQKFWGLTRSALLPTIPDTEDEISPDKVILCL
The test system of experiment [7] is HCT-116. Briefly: Induction of apoptosis in human HCT-116 cells assessed as early apoptotic cells at 10 nM incubated for 48 hrs by Annexin V-FITC/PI staining based flow cytometry analysis (reference value: 3.02 %). Format: functional.
Experiment [8] addresses T2, Protein cereblon/Kinesin-like protein KIF11. Briefly: PROTAC activity at CRBN/KSP in human HCT-116 cells assessed as induction of KSP degradation at 200 nM pretreated with MG-132 for 2 hrs followed by compound addition for 24 hrs by Western blot analysis. Type of experiment: cell-based.
Target sequence in this assay (Q96SW2 whole entry, looked up, one chain of several): as above
For experiment [9], the system named is HCT-116. Briefly: Induction of cell cycle arrest in human HCT-116 cells assessed as accumulation of cells at S phase at 100 nM incubated for 24 hrs by RNase A/propidium iodide staining based flow cytometric analysis (reference value: 2.84 %). Format: functional.
For experiment [10], the system named is HCT-116. As to the kind of experiment: Antitumor activity against human HCT-116 cells xenografted in female BALB/c nu/nu mouse assessed as reduction in tumor volume at 15 mg/kg, ip measured every 2 days for 14 days relative to control. Type of experiment: functional. Also on record: scale not given: the % may be the effect or the level left. The conditions noted are these: time 14 day.

For experiment [11], the system named is HCT-116. As to the kind of experiment: Induction of apoptosis in human HCT-116 cells assessed as early apoptotic cells at 100 nM incubated for 48 hrs by Annexin V-FITC/PI staining based flow cytometry analysis (reference value: 3.02 %). Format: functional.
The target of experiment [12] is T2, Protein cereblon/Kinesin-like protein KIF11. As to the kind of experiment: PROTAC activity at CRBN/KSP in human HCT-116 cells assessed as induction of KSP degradation at 200 nM pretreated with MLN4924 for 2 hrs followed by compound addition for 24 hrs by Western blot analysis. Format: cell-based.
Target sequence in this assay (Q96SW2 whole entry, looked up, one chain of several): as above
Experiment [13] concerns HCT-116. Briefly: Induction of cell cycle arrest in human HCT-116 cells assessed as accumulation of cells at G1 phase at 10 nM incubated for 24 hrs by RNase A/propidium iodide staining based flow cytometric analysis (reference value: 93.11 %). Type of experiment: functional.
For experiment [14], the system named is HCT-116. Briefly: Antitumor activity against human HCT-116 cells xenografted in female BALB/c nu/nu mouse assessed as reduction in tumor weight at 15 mg/kg, ip measured every 2 days for 14 days relative to control. Type of experiment: functional. Also on record: scale not given: the % may be the effect or the level left. The conditions noted are these: time 14 day.

In a further experiment the test system is MDA-MB-231. Briefly: Antiproliferative activity against human MDA-MB-231 cells assessed as inhibition of cell proliferation measured after 72 hrs by CCK8 assay. Format: functional, cell-based. The conditions noted are these: MDA-MB-231, 72 h.
The subject of experiment [15] is HCT-116. Briefly: Induction of apoptosis in human HCT-116 cells assessed as necrotic cells at 10 nM incubated for 48 hrs by Annexin V-FITC/PI staining based flow cytometry analysis (reference value: 1.31 %). Format: functional.
For experiment [16], the system named is HCT-116. As to the kind of experiment: Induction of cell cycle arrest in human HCT-116 cells assessed as accumulation of cells at G2/M phase at 10 nM incubated for 24 hrs by RNase A/propidium iodide staining based flow cytometric analysis (reference value: 4.05 %). Format: functional.
Experiment [17] relates to HCT-116. As to the kind of experiment: Induction of apoptosis in human HCT-116 cells assessed as viable cells at 10 nM incubated for 48 hrs by Annexin V-FITC/PI staining based flow cytometry analysis (reference value: 94.31 %). Format: functional. The conditions noted are these: read-out: Activity.
Experiment [18] deals with HCT-116. Briefly: Antitumor activity against human HCT-116 cells xenografted in female BALB/c nu/nu mouse assessed as reduction in tumor weight at 7.5 mg/kg, ip measured every 2 days for 14 days relative to control. Type of experiment: functional. Details: scale not given: the % may be the effect or the level left. The conditions noted are these: time 14 day.
For experiment [19], the system named is HCT-116. As to the kind of experiment: Induction of apoptosis in human HCT-116 cells assessed as necrotic cells at 100 nM incubated for 48 hrs by Annexin V-FITC/PI staining based flow cytometry analysis (reference value: 1.31 %). Format: functional.

In general, IC50 refers to the concentration that gives 50% inhibition. Broadly, the DC50 is the midpoint of the concentration-degradation curve. As for `COc1ccc(C2(SC[C@H](N)C(=O)NCCCCCCCCNC(=O)COc3cccc4c3C(=O)N(C3CCC(=O)NC3=O)C4=O)c3ccccc3C=Cc3ccccc32)cc1` (some centres not stated), the concentration for half-maximal inhibition (IC50) in experiment [1] came to 290 nM; with A549, 160 nM; in the experiment with HCT-116 [2], 10.2 nM; in the experiment on MDA-MB-231, 35.4 nM. Also, the Activity is 9.87% in the experiment with HCT-116 [3]; “Dose-dependent-effect” in experiment [4]; 75.05% in the experiment on HCT-116 [5]; 82.1% in experiment [6]; 13.51% in the experiment with HCT-116 [7]; “Not active; Compound Induced Ksp Degradation In Mediated Through Ubiquitin-Proteosome System” in experiment [8]. The Activity is 14.97% in the experiment with HCT-116 [9]; 98% with HCT-116 [10]; 30.35% with HCT-116 [11]; “Not active; Compound Induced Ksp Degradation In Mediated Through Ubiquitin-Proteosome System” in experiment [12]; 75.34% in the experiment on HCT-116 [13]; 99% in the experiment with HCT-116 [14]. Also, the Activity in the experiment with HCT-116 [15] was determined as 13.67%; with HCT-116 [16] it was 14.79%; with HCT-116 [18] it was 97%; in the experiment on HCT-116 [19] it was 14.98%. The DC50 in experiment [4] was 115 nM. In addition, the viability at 0.01 µM in the experiment on HCT-116 [17] was 57.9%.
